# From US20230257367A1, “NOVEL THYROID HORMONE BETA RECEPTOR AGONIST” (Chengdu Kanghong Pharmaceutical Co., Ltd., priority 2020, published 2023)
# Read-outs that look alike come from different tables or passages of the source.
# Columns and labels:
# [1] = PK experiment of cynomolgus monkeys; assay type: in vivo; details: cynomolgus monkey, plasma; for half-life / AUC(0-t) / Cmax: single dose; for half-life: male cynomolgus monkeys, read-out: Half-life period (T1/2) (converted); for AUC(0-t): read-out: Area under the curve AUC(0-t) in the case of administration; for Cmax: read-out: Peak concentration Cmax
# Description: The purpose of this experiment was to evaluate the pharmacokinetic behavior of the compound to be tested after single intravenous and intragastric administration, and to study the bioavailability after intragastric administration, providing animal experimental data for clinical studies.
# Preparation of solutions for intravenous injection and intragastric administration: an appropriate amount of compound to be tested was accurately weighed, and mixed with a suitable solvent (5 vol % DMSO+10 vol % polyethylene glycol−15-hydroxystearate+85 vol % normal saline). After vortex, or ultrasound processing, a clear and transparent solution (the solution for intravenous injection administration), or a uniform suspension was obtained. The solution administrated by intravenous injection needed to be filtered through a 0.22 μm filter membrane
# Experimental design: before the first dose the cynomolgus monkeys were divided into 2 groups by body weight with 3 male cynomolgus monkeys in each group, where animals in group 1 were given the compound to be tested (1 mg/kg) by single intravenous injection (IV); and animals in the 2rd group were administrated with the compound to be tested (5 mg/kg) by single intragastric administration (PO). The animals were weighed before administration, and dosages were calculated based on the weights of the animals.
# Sample collection: a whole blood sample (about 0.2 mL) was collected at a specified time by venipuncture of an upper limb (or other suitable blood collection sites), and the actual blood collection time was recorded in test records. The acceptable error for one acquisition time point within 1 hour after administration is ±1 minute, and the acceptable error for other time points is ±5% of the theoretical time. All blood samples were immediately transferred to a labeled commercial centrifuge tube containing K2-EDTA. After blood sample collection, the blood sample was centrifuged at 4° C. and 3,200 g for 10 minutes, the supernatant plasma was sucked, quickly put in dry ice, and kept in a refrigerator at −70±10° C. for LC-MS/MS analysis. The collection time of both groups was 0.083 hour, 0.25 hour, 0.5 hour, 1 hour, 2 hours, 4 hours, 8 hours and 24 hours after administration.
# Data processing: Area under the curve (AUC(0-t) and AUC(0-∞)), elimination half-life (T½), peak concentration (Cmax), time to reach maximum plasma concentration (Tmax), etc., were calculated by the non-compartment analysis module in Phoenix WinNonlin 7.0.
# TRα = biological target: T1, TRα (Homo sapiens, UniProt P10827); experiment: In vitro TRα cell transfection experiment (GAL4 luciferase reporter, HEK293T); assay type: cell-based
# T1 construct: host or cells: HEK293T
# T1 sequence (P10827 1-410 isoform P10827-2): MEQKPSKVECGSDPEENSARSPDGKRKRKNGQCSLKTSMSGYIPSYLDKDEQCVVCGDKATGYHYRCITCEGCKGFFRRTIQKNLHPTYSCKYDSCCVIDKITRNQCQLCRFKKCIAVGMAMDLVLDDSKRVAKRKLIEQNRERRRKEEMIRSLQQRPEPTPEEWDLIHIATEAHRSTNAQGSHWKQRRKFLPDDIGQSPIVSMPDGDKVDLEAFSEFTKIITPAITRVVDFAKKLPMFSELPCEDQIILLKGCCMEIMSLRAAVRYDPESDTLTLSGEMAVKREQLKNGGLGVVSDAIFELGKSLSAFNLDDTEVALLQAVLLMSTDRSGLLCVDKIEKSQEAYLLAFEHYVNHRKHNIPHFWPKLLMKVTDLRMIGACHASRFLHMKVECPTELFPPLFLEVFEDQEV
# T1 sequence (P19793 227-458 partner limits assumed): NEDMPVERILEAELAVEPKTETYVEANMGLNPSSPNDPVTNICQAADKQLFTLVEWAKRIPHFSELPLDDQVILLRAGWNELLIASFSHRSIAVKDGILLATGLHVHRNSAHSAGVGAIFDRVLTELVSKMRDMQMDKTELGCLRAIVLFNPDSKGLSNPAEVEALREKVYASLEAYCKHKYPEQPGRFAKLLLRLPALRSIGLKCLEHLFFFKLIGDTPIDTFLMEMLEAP
smiles,measurement,setting,value
CC(C)c1nc(Oc2c(Cl)cc(-n3ncc(=O)[nH]c3=O)cc2Cl)ncc1O [KH06],half-life,"[1]; IV, 1 mg/kg",9 h
same,half-life,"[1]; PO, 5 mg/kg",16.7 h
same,bioavailability,"[1]; male, PO 5 mg/kg vs IV 1 mg/kg, read-out: Bioavailability (F)",73%
same,AUC(0-t),"[1]; male, IV, 1 mg/kg",48.8 µg·h/mL
same,Cmax,"[1]; male, IV, 1 mg/kg",20700 ng/mL
same,AUC(0-t),"[1]; male, PO, 5 mg/kg",178 µg·h/mL
same,Cmax,"[1]; male, PO, 5 mg/kg",18300 ng/mL
same,EC50,TRα,0.037 µM
